Laboratory results as given in ChEMBL document CHEMBL5465560, “Selectivity Literature for EUbOPEN Chemogenomic Library” (2024).

Tests used:
[1] = molecular target: T1, Dual specificity mitogen-activated protein kinase kinase 6 (Homo sapiens) (UniProt P52564); experiment: Selectivity interaction (KinomeScan (DiscoverX)) EUB0000595a MAP2K6; conditions: at 10 µM
T1 sequence (whole entry): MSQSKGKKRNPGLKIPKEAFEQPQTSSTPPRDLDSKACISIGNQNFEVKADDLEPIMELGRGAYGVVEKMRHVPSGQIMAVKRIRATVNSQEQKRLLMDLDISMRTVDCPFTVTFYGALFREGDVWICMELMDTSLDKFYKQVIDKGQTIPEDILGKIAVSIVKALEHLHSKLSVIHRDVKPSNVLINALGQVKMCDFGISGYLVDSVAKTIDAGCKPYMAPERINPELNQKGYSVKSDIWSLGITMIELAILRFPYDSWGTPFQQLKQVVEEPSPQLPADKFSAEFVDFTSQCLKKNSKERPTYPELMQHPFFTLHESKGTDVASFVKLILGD

[2] = molecular target: T2, Myosin-IIIb (Homo sapiens) (UniProt Q8WXR4); experiment: Selectivity interaction (KinomeScan (DiscoverX)) EUB0000595a MYO3B; conditions: at 10 µM
T2 sequence (whole entry): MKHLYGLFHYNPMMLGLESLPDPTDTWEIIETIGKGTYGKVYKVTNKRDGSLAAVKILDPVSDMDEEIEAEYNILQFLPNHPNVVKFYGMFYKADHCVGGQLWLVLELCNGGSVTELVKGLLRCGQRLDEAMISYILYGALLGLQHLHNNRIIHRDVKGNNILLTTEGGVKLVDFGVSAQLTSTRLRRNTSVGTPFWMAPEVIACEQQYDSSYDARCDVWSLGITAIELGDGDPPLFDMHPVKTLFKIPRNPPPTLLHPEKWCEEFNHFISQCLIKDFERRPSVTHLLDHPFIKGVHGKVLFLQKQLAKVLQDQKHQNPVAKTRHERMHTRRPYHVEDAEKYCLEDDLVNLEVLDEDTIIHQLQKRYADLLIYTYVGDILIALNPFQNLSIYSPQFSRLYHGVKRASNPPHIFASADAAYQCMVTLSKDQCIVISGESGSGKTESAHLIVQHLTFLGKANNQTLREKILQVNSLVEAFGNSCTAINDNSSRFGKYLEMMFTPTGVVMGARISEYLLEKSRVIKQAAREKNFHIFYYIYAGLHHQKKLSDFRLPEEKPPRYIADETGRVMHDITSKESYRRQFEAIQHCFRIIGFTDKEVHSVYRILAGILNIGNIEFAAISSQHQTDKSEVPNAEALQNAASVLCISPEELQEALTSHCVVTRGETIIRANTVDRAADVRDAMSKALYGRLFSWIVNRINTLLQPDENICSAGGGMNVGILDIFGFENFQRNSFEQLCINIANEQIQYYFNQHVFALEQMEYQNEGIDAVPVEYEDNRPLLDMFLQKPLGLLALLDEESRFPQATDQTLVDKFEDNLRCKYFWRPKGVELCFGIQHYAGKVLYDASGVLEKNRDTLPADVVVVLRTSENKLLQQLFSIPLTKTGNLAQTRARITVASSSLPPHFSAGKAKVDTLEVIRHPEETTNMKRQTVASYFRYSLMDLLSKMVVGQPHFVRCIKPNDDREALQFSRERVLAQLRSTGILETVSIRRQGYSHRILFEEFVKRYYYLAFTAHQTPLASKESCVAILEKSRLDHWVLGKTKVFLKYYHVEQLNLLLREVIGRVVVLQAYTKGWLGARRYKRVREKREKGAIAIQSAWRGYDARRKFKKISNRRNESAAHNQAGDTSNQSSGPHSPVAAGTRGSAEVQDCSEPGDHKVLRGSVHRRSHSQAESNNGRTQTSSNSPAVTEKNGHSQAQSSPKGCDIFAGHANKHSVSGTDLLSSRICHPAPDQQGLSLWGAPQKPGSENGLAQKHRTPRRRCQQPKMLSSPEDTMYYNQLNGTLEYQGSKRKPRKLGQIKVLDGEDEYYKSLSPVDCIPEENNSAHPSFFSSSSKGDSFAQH

[3] = molecular target: T3, Mitogen-activated protein kinase kinase kinase 19 (Homo sapiens) (UniProt Q56UN5); experiment: Selectivity interaction (KinomeScan (DiscoverX)) EUB0000045b MAP3K19
T3 sequence (whole entry): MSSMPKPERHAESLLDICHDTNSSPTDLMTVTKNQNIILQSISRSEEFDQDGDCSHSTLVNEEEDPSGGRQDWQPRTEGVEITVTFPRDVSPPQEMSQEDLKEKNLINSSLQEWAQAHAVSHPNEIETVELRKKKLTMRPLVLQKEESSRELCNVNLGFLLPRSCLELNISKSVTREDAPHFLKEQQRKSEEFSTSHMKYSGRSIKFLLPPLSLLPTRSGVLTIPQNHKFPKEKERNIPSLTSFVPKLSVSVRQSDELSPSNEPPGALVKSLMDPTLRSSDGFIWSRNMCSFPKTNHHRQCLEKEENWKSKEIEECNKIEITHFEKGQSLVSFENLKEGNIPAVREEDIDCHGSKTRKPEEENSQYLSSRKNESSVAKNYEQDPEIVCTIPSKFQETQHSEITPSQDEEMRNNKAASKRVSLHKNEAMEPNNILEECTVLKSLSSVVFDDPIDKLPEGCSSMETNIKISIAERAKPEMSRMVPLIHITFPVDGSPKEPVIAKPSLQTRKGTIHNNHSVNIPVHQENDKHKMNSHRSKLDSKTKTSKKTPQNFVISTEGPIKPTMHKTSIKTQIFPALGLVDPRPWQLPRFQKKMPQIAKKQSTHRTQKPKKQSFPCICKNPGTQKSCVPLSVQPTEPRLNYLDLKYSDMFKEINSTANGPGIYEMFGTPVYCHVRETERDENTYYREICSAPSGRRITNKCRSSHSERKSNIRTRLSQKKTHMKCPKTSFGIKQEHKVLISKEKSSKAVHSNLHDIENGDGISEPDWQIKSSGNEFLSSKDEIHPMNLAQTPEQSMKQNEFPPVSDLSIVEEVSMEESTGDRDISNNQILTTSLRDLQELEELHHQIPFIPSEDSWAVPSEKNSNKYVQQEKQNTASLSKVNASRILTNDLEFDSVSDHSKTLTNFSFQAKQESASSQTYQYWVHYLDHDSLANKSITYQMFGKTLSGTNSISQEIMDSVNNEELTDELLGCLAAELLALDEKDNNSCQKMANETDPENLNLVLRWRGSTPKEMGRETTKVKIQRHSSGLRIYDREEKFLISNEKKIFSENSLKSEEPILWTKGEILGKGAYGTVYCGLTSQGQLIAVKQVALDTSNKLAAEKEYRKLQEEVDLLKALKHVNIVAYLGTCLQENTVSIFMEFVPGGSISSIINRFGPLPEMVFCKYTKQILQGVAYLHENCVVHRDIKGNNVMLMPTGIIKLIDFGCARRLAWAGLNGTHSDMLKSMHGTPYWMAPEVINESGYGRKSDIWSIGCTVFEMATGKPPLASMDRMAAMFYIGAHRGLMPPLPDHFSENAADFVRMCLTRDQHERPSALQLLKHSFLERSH

SMILES	% of control [1]	% of control [2]	% of control ([3]; at 1 µM)	% of control ([3]; at 10 µM)
COCC(=O)NC/C=C/c1ccc2ncnc(Nc3ccc(Oc4ccc(C)nc4)c(C)c3)c2c1 [CP-724714]	93%	100%	–	–
C=CC(=O)Nc1cc(-n2c(=O)ccc3cnc4ccc(-c5ccc(NS(C)(=O)=O)cc5)cc4c32)ccc1C	–	–	100%	65%
